One assay has as its target Human JNK1α1 (Homo sapiens (Human), UniProt P45983). The experiment in a line: JNK assay in vitro: phosphorylation of GST-ATF2 (19-96) with [γ-33P] ATP, JNK1. The assay is classed as biochemical. Conditions: 2 nM enzyme, 1 μM ATF2, 6 μM ATP (Km), 30° C. 30 min. On the procedure:
JNK activity was measured by phosphorylation of GST-ATF2 (19-96) with [γ-^33P] ATP. […] Human JNK2α2 assay contains 1 nM enzyme, 1 μM ATF2, 8 μM ATP with 1 uCi [γ-^33P] ATP. Human JNK1α1 assay contains 2 nM enzyme, 1 μM ATF2, 6 μM ATP with 1 μCi [γ-^33P] ATP. […] ATP. The enzyme assay was carried out in the presence or absence of several compound concentrations. JNK and compound were pre-incubated for 10 min., followed by initiation of the enzymatic reaction by adding ATP and the substrate. The reaction mixture was incubated at 30° C. for 30 min. […] The incorporation of ^33P into ATF2 was quantified on a microplate scintillation counter (Packard Topcount). Compound inhibition potency on JNK was measured by IC50 value generated from ten concentration inhibition curves fitted into the 3-parameter model: % inhibition=Maximum/(1+(IC50/[Inhibitor])^slope). Data were analyzed on Microsoft Excel for parameter estimation.

A further assay addresses Human JNK2α2 (Homo sapiens (Human), UniProt P45984). Briefly: JNK assay in vitro: phosphorylation of GST-ATF2 (19-96) with [γ-33P] ATP, JNK2. Conditions: 1 nM enzyme, 1 μM ATF2, 8 μM ATP (Km), 30° C. 30 min. It is filed as biochemical. On the procedure:
JNK activity was measured by phosphorylation of GST-ATF2 (19-96) with [γ-^33P] ATP. […] Human JNK2α2 assay contains 1 nM enzyme, 1 μM ATF2, 8 μM ATP with 1 uCi [γ-^33P] ATP. Human JNK1α1 assay contains 2 nM enzyme, 1 μM ATF2, 6 μM ATP with 1 μCi [γ-^33P] ATP. Human JNK3 (Upstate Biotech #14-501M) assay contains 2 nM enzyme, 1 μM ATF2, 4 μM ATP with 1 μCi [γ-^33P] ATP. The enzyme assay was carried out in the presence or absence of several compound concentrations. JNK and compound were pre-incubated for 10 min., followed by initiation of the enzymatic reaction by adding ATP and the substrate. The reaction mixture was incubated at 30° C. for 30 min. At the end of incubation, the reaction was terminated by transferring 25 μl of the reaction mixture to 150 μl of 10% glutathione Sepharose® slurry (Amersham #27-4574-01) containing 135 mM EDTA. The reaction product was captured on the affinity resin, and washed on a filtration plate (Millipore, MABVNOB50) with phosphate buffered saline for six times to remove free radionucleotide. The incorporation of ^33P into ATF2 was quantified on a microplate scintillation counter (Packard Topcount). Compound inhibition potency on JNK was measured by IC50 value generated from ten concentration inhibition curves fitted into the 3-parameter model: % inhibition=Maximum/(1+(IC50/[Inhibitor])^slope). Data were analyzed on Microsoft Excel for parameter estimation.

Drawing on patent publication US8536172B2, “Inhibitors of JNK” (Roche Palo Alto LLC, priority 2009, dated 2013), this text covers IC50 for 7 compounds.

A word on the IC50: it is the concentration at which inhibition is half-maximal.

Sequence of Human JNK1α1 (P45983 other isoform, or with tags, fused parts or gaps): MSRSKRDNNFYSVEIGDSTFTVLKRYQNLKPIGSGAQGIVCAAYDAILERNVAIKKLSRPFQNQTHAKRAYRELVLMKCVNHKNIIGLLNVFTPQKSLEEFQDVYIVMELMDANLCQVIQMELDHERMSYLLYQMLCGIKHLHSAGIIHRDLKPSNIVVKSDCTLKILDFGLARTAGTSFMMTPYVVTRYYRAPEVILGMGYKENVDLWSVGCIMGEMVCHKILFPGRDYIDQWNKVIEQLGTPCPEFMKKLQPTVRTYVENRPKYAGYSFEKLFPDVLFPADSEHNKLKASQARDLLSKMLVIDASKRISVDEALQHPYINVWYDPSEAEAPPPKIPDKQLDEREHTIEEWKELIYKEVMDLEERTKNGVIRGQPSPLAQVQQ
Sequence of Human JNK2α2 (P45984 whole entry): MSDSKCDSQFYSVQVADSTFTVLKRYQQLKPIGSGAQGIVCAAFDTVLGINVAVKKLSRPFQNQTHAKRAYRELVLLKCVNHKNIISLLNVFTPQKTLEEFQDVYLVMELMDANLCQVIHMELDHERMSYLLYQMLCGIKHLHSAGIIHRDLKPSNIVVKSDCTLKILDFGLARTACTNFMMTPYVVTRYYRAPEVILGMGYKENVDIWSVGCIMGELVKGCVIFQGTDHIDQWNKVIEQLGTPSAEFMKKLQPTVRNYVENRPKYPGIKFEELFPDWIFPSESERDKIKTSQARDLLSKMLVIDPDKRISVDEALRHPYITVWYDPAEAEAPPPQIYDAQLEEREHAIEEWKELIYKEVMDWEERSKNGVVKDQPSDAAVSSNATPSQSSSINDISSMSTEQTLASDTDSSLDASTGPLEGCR

Consider `CS(=O)(=O)C[C@H]1CC[C@H](Nc2nccc(-n3ccc4c(N5CCN(C(=O)CC#N)CC5)cccc43)n2)CC1` [Compound I-42, 3-(4-{1-[2-(4-Methanesulfonylmethyl-cyclohexylamino)-pyrimidin-4-yl]-1H-indol-4-yl}-piperazin-1-yl)-3-oxo-propionitrile], for which the IC50 against Human JNK1α1 turned out to be 2.4 nM; at Human JNK2α2, 13.6 nM.

For `CS(=O)(=O)C1CCN(c2cccc3c2ccn3-c2ccnc(N[C@H]3CC[C@H](C(=O)N4CCn5c(nnc5C(F)(F)F)C4)CC3)n2)CC1` [Compound I-51, (4-{4-[4-(4-Methanesulfonyl-piperidin-1-yl)-indol-1-yl]-pyrimidin-2-ylamino}-cyclohexyl)-(3-trifluoromethyl-5,6-dihydro-8H-[1,2,4]triazolo[4,3-a]pyrazin-7-yl)-methanone], the 50% inhibitory concentration (IC50) is 3.6 nM on Human JNK1α1 and 6.2 nM against Human JNK2α2.

Take `N#CCC(=O)N1CCN(c2cccc3c2ccn3-c2ccnc(N[C@H]3CC[C@H](O)CC3)n2)CC1` [Compound I-55, 3-(4-{1-[2-(4-Hydroxy-cyclohexylamino)-pyrimidin-4-yl]-1H-indol-4-yl}-piperazin-1-yl)-3-oxo-propionitrile]: the IC50 is 4.4 nM at Human JNK1α1 and 23.1 nM against Human JNK2α2.

On to `CCN1CCN(C(=O)[C@H]2CC[C@H](Nc3nccc(-n4ccc5c(N6CCN(C(=O)CC#N)CC6)cccc54)n3)CC2)CC1` [Compound I-56, 3-[4-(1-{2-[4-(4-Ethyl-piperazine-1-carbonyl)-cyclohexylamino]-pyrimidin-4-yl}-1H-indol-4-yl)-piperazin-1-yl]-3-oxo-propionitrile], for which the IC50 at Human JNK1α1 turned out to be 9.2 nM; on Human JNK2α2, 18.7 nM.

As for `N#CCC(=O)N1CCN(c2cccc3c2ccn3-c2ccnc(N[C@H]3CC[C@@H](O)CC3)n2)CC1` [Compound I-57, 3-(4-{1-[2-(4-Hydroxy-cyclohexylamino)-pyrimidin-4-yl]-1H-indol-4-yl}-piperazin-1-yl)-3-oxo-propionitrile], the results for the IC50 on Human JNK1α1 and against Human JNK2α2 were 15.9 nM and 88.4 nM, respectively.

On to `CC(=O)N1CCN(c2cccc3c2c(C(N)=O)cn3-c2ccnc(N[C@H]3CC[C@H](O)CC3)n2)CC1` [Compound I-63, 4-(4-Acetyl-piperazin-1-yl)-1-[2-(4-hydroxy-cyclohexylamino)-pyrimidin-4-yl]-1H-indole-3-carboxylic acid amide], for which the figures for the IC50 at Human JNK1α1 and on Human JNK2α2 were 12.4 nM and 25.7 nM, respectively.

Regarding `CS(=O)(=O)C1CCN(c2cccc3c2cnn3-c2ccnc(N[C@H]3CC[C@H](O)CC3)n2)CC1` [Compound I-66, 4-{4-[4-(4-Methanesulfonyl-piperidin-1-yl)-indazol-1-yl]-pyrimidin-2-ylamino}-cyclohexanol], the concentration for half-maximal inhibition (IC50) at Human JNK1α1 worked out at 5.8 nM; against Human JNK2α2 it was 16.7 nM.
